# Measured values: US5304604A, “Hydroxamic acid collagenase inhibotors” (British Bio-technology Limited, priority 1988, dated 1994)
# How the values were obtained:
# [1] = molecular target: T1, collagenase (Homo sapiens, UniProt P03956); experiment: Collagenase Inhibition Activity (procedure of Cawston and Barrett); type: biochemical; conditions: for IC50: acetylated 14C collagen, 37°, 16 hours, pH 7.5, read-out: IC50 (inhibitor concentration effecting 50% inhibition of the collagenase)
# T1 sequence (P03956 100-469): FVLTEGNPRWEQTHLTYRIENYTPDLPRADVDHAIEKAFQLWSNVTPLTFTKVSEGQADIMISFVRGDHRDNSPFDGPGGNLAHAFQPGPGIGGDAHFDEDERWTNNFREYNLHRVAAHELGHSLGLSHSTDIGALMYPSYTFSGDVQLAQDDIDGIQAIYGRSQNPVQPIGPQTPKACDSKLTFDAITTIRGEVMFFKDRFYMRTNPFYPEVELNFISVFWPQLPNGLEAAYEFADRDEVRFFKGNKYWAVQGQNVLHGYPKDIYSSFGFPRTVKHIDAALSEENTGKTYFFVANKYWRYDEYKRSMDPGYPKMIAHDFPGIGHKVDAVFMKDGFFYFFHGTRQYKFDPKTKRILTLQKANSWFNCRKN
# [2] = molecular target: stromelysin (Homo sapiens, UniProt P08254); experiment: Stromelysin Inhibition Activity (procedure of Cawston et al); type: biochemical; conditions: for protoglycanase inhibiting activity, in words: protoglycanase = stromelysin (b7)
# Experimental: The potency of compounds of general formula I to act as inhibitors of collagenase (a metalloprotease involved in tissue degradation) was determined by the procedure of Cawston and Barrett, (Anal. Biochem., 99, 340-345, 1979) and their potency to act as inhibitors of stromelysin was determined using the procedure of Cawston et al (Biochem. J., 195, 159-165 1981), both of which techniques are to be described more fully in the examples and, to the extent that the law allows, are incorporated by reference herein.
# Sequence of stromelysin (P08254 100-477): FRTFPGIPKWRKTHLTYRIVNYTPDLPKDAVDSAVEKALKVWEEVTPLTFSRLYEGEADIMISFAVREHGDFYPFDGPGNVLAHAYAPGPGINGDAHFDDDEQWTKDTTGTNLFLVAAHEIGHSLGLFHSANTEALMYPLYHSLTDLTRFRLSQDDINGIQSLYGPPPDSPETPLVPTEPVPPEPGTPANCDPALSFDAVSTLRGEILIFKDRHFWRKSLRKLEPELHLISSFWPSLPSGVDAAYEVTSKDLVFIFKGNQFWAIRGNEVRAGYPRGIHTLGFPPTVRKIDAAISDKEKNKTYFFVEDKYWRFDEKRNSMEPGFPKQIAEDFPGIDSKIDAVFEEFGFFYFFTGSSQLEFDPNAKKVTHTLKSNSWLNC
IC50 [1] [nM],"collagenase-inhibiting activity, in words [1]","protoglycanase inhibiting activity, in words [2]","IC50 ([2]; 14C acetylated casein, 37° C., 16 hours, pH 7.5, read-out: IC50 (inhibitor concentration effecting 50% inhibition of the stromelysin)) [nM]",SMILES
70,–,–,–,"CC(C)C[C@H](CC(=O)NO)C(=O)N[C@@H](Cc1ccccc1)C(=O)NCCN1CCCC1 [Example 3, [4-(N-Hydroxyamino)-2R-isobutylsuccinyl]-L-phenylalanine-N-[1-(2-aminoethyl)-pyrrolidine]amide]"
20,good,good,–,"CC(C)C[C@H](CC(=O)NO)C(=O)N[C@@H](Cc1ccccc1)C(=O)NCc1cccnc1 [Example 6, [4-(N-Hydroxyamino)-2R-isobutylsuccinyl]-L-phenylalanine-N-(3-aminomethylpyridine)amide]"
15,good,good,50,"CC(C)C[C@@H](C(=O)N[C@@H](Cc1ccccc1)C(=O)NCCN1CCOCC1)[C@H](C)C(=O)NO [Example 11, [4-(N-Hydroxyamino)-2R-isobutyl-3S-methylsuccinyl]-L-phenylalanine-N-[4-(2-aminoethyl)-morpholino]amide]"
